The text below walks through data of US8987189B2, “Treating hepatitis C virus infection” (Board of Regents, The University of Texas System, priority 2007, dated 2015).

One data set concerns genotype 2a HCV. Kind of data set: HCV release assay in Huh7-GL cells (HCV RNA copy number and titer in medium, intracellular HCV RNA). In kind it is cell-based, hepatitis C virus. Conditions: for cellular release of virus (HCV RNA copy numbers and titers in the media): Huh7-GL cells, 1 nM, 10 nM, 100 nM and 500 nM, 16 hr then 4 hours in serum-free medium. As to the method: (§1) Huh7-GL cells were incubated in the absence or presence of the MTP inhibitor […]. Following incubation in serum-free medium, culture medium was harvested and the amount of HCV RNA, HCV titer, and apoB in the medium was measured.
Huh7-GL cells are cultured as described in Example 2. On day 1, the cells are treated with 1 nM, 10 nM, 100 nM, and 500 nM of the following MTP inhibitors: BMS-201038 (positive control), BMS-200150, BMS-212122, BMS-197636, JTT-130, Implitapide, mitratapide, and CP-346086. 16 hr later on day 2, cells are switched to serum-free medium in the absence or presence of the same amount of the MTP inhibitor.

In a further data set the test system is HCV. Kind of data set: Randomized, double-blind, placebo-controlled trial in patients with chronic HCV infection. Conditions: 0.15 mg per kilogram twice daily, 12-week course. As to the method:
Patients are recruited and are eligible for enrollment if they are positive for HCV RNA on serologic testing after at least 3 months of interferon therapy. Patients who can not tolerate interferon because of severe side effects, such as fatigue, neuropsychiatric disturbances, or thrombocytopenia, are also included.
Physicians and patients are blinded to treatment assignments. Patients are evaluated every 3 weeks for compliance, which is assessed by pill count, and for the development of adverse reactions. […] At each evaluation visit, a complete blood count is done and serum levels of electrolytes, blood urea nitrogen, creatinine, aspartate aminotransferase, alanine aminotransferase, albumin, and total bilirubin are measured. Titers of serum HCV RNA are assessed before enrollment, at each evaluation visit, and 6 weeks after the final dose by using a […] multicycle reverse transcription polymerase chain reaction method. Titers are calculated up to 5 million copies/mL; if a titer is greater than 5 million copies/mL, it is simply reported as such and the exact value is not given.

For data set [1] the following is noted: previous clinical trials; cited from earlier work.
In the next data set the test system is apoB. Kind of data set: apoB mRNA and apoB secretion in Huh7-GL cells. It is filed as cell-based, human. Conditions: Huh7-GL cells incubated with MTP inhibitor, serum-free medium. As to the method: We transfected Huh7-GL cells, a line of Huh7 cells that contain a chromosomally integrated genotype 2a HCV cDNA and constitutively produce infectious virus (Cai et al., 2005), with a duplex siRNA targeting apoB or GFP as a control. Following incubation in serum-free medium, culture medium was harvested and the amount of apoB and HCV in the medium was analyzed. […] In control cells transfected with the GFP siRNA, the HCV copy number and titer increased by more than 10 fold during the period of 4-hr incubation. In cells receiving the apoB siRNA, this increase was reduced by about 50% as assayed by viral copy number, and 70% as assayed by the viral titer.
as §1

The mark [2] stands for this setting: Huh7-GL cells incubated with MTP inhibitor vs absence of inhibitor.

Consider `CCCNC(=O)C1(CCCCN2CCC(N3Cc4ccccc4C3=O)CC2)c2ccccc2-c2ccccc21` [BMS-197636], for which the “cellular release of virus (HCV RNA copy numbers and titers in the media)” value (from here on “cellular release of virus”) in the data set on genotype 2a HCV is recorded as “decreases in cellular release of virus”.

Consider `O=C1c2ccccc2CN1C1CCN(CCC(c2ccccc2)c2ccccc2)CC1` [BMS-200150], for which the “cellular release of virus” value in the data set on genotype 2a HCV is on record as “decreases in cellular release of virus”.

Regarding `O=C(NC1CCN(CCCCC2(C(=O)NCC(F)(F)F)c3ccccc3-c3ccccc32)CC1)c1ccccc1-c1ccc(C(F)(F)F)cc1` [BMS-201038], the “intracellular HCV RNA” value with genotype 2a HCV (Huh7-GL cells in the absence or presence of the MTP inhibitor) is “remained the same”. Moreover, in the data set with genotype 2a HCV (setting [2]), the “reduction of the amount of HCV RNA in the medium” value was “about 80%” and the “reduction of viral titer in the medium” value was “about 80%”. Further, the “cellular release of virus” value with genotype 2a HCV was “decreases in cellular release of virus”. Moreover, in the data set with HCV, the “serum viremia (viral load, aminotransferase levels)” value was “decrease in serum viremia”. For the same compound, the tolerability entry in data set [1] is listed as “high tolerability”. Further, in the data set with apoB, the “secretion of apoB” value is on record as “blocked”.

As to `Cc1ccc2c(nc(C)n2CCCCC2(C(=O)NCC(F)(F)F)c3ccccc3-c3ccccc32)c1NC(=O)c1ccccc1-c1ccc(C(F)(F)F)cc1` [BMS-212122], the “cellular release of virus” value in the data set on genotype 2a HCV is “decreases in cellular release of virus”.

For `O=C(Nc1ccc2c(c1)CCN(Cc1ncn[nH]1)C2)c1ccccc1-c1ccc(C(F)(F)F)cc1` [CP-346086], the “cellular release of virus” value in the data set with genotype 2a HCV was “decreases in cellular release of virus”.

In the case of `CCOC(=O)C(COC(=O)Cc1ccc(NC(=O)c2ccccc2-c2ccc(C(F)(F)F)cc2)c(C(=O)N(C)C)c1)(C(=O)OCC)c1ccccc1` [JTT-130], the “cellular release of virus” value with genotype 2a HCV was “decreases in cellular release of virus”.

For the compound `CC[C@@H](C)n1ncn(-c2ccc(N3CCN(c4ccc(OC[C@@H]5CO[C@@](CSc6nncn6C)(c6ccc(Cl)cc6)O5)cc4)CC3)cc2)c1=O` [mitratapide], in the data set with genotype 2a HCV, the “cellular release of virus” value is listed as “decreases in cellular release of virus”. For implitapide, the “cellular release of virus” value in the data set on genotype 2a HCV is “decreases in cellular release of virus”.
